Assay results as given in EP0263209A2, “Anthelmintic quinolinyl acylhydrazones” (THE UPJOHN COMPANY, priority 1986, dated 1988).
Like-named read-outs stand apart in the source and are kept apart here.

Columns and labels:
Format in all cases: in vivo
H. contortus = test: Sheep experimentally infected with Haemonchus contortus, percentage clearance (Procedure No. 1); conditions: single sheep per route
Procedure: In individual experiments all sheep are treated identically, however non-critical variations occur between experiments. All of the sheep used in this procedure are treated twice with levamisole hydrochloride orally at 8 mg/kg or once each with ivermectin parenterally at 200 µg/kg and levamisole hydrochloride orally at 8 mg/kg. The second treatment in each case is administered 4-7 days after the first treatment. Two weeks after the second treatment all sheep are inoculated per os with ∼3,500 to ∼7,500 infective larvae of H. contortus. Rectal fecal samples are taken from each sheep 26-41 days post-inoculation (P.I.), and these samples are examined for eggs of H. contortus using the McMaster counting chamber technique. […] One-three days later on days 27-42 PI each sheep remaining in the study (excluding the nontreated controls) is treated with a test compound (orally or parenterally at 100 mg/kg unless indicated otherwise) or a standard (levamisole hydrochloride orally at 8 mg/kg) or is used as an untreated control. All sheep received food and water ad lib. throughout the experiment. Prior to administration, all solid compounds are finely ground using a mortar and pestle. Oral compounds are suspended in 20-30 ml of sterile vehicle #98 (each ml contains: carboxymethylcellulose = 10 mg, polysorbate80 -4 mg, propylparaben - 0.42 mg) using a sonicator and administered along with a tap water wash via a stomach tube. The parenteral compounds are similarly suspended in 20-30 ml of the sterile vehicle and given by intraperitoneal injecting using a 13 gauge, 2 inch needle and a 50 ml syringe. All test compounds are given to a single sheep/route of administration. Two or more sheep are treated with levamisole hydrochloride and five are used as nontreated controls. All animals are monitored for signs of toxicity following treatment. The sheep are sacrificed 7-12 days after treatment (days 35-49 PI), and the abomasum is ligated and removed from each sheep. Each abomasum is longitudinally sectioned and rinsed into an 80 mesh sieve. Sieve contents are collected in individual containers and fixed in formol-alcohol. Later each sample is transferred to a 1000 or 2000 ml beaker and the volume brought to 400-1000 ml with tap water. The total number of worms in a 40-100 ml aliquot (10%) is determined. When no worms are found in the 10% aliquot, the entire sample is examined. Total worm number/sheep and percentage clearance for each treatment are calculated. Percentage clearance for a particular test compound in a given trial is determined according to the following formula: Percentage Clearance (Test Compound) = [(Mean number of worms recovered from nontreated control sheep - Number of worms recovered from treated sheep)/Mean number of worms recovered from nontreated control sheep] x 100. Sheep which die within 24 hr following treatment are not examined for worms, while any that die between 24 hr post-treatment and necropsy are examined in an identical manner as that described above. The results of various trials are combined and reported in Table I as percentage clearance.

Oesophagostomum = test: Sheep naturally infected with helminths, mean percentage clearance of adult worms (Procedure No. 2); conditions: Oral, 100 mg/kg, groups of five
Procedure: (§1) Parasitized sheep are randomly assigned to groups of five animals based on parasitic burden, sex, and farm origin. Sheep are double ear-tagged, weighed, housed in a barn in community pens, fed hay supplemented with 1/2 lb corn/head/day. Water is given ad lib. Animals are allowed to acclimate for one-two weeks prior to treatment.
(§2) Each group of sheep receives a test compound either orally or parenterally at a dosage rate of 100 mg/kg. A group of sheep is treated with 8 mg/kg of levamisole hydrochloride and another group serves as an untreated control group. Orally administered compounds are suspended in 20-30 ml of sterile vehicle #98 (each ml contains: carboxymethylcellulose - 10 mg, polysorbate80 -4 mg, propylparaben - 0.42 mg) using a sonicator and administered along with a tap water wash via a stomach tube. For parenteral administration, compounds are similarly suspended in 20-30 ml of the sterile vehicle and given by intraperitoneal injection using a 20 gauge, 1 inch needle and a 50 ml syringe. Following treatment, all animals are observed for signs of toxicity.
(§3) The number and classification of helminth eggs per gram of feces (e.p.g.) are determined for each sheep during the acclimation period and in some cases at necropsy. Egg counts are made using the McMaster counting chamber technique and rectal fecal samples. Animals dying during the 24 hours immediately following dosing are not subjected to necropsy. Sheep that die 1-6 days posttreatment are posted and complete worm counts performed. All remaining animals are sacrificed on days 7-8 posttreatment. Each sheep is euthanised and bled out prior to opening the abdominal cavity. Ligatures are placed at the reticuloomasal junction, the pyloric valve, and the ileo-cecal junction. The abomasum and small intestine are freed of fat and mesenteric attachments, longitudinally opened, and their contents placed in individual containers. The mucosal surface of each is washed with tap water, rubbed clean, and rinsed several times. Washings and ingesta for each organ are made up to 1 liter and a 10% aliquot in formalin is stored for later examination. The cecum, large intestine, and colon are freed of mesenteric attachments, each is longitudinally opened, and their contents washed, collected, and made up to 1 liter in 10% formalin. The entire sample is stored. All carcasses are incinerated.
(§4) Ten percent of the total contents collected from the abomasum and small intestine and the entire contents of the large intestine, cecum, and colon are examined under stereoscopic magnification (40X). All worms are identified to genus and in some instances species. Separate adult and larval counts are determined.
(§5) The mean percentage clearance against specific helminths in the test sheep is calculated by subtracting the mean number of helminths observed in the treated sheep at necropsy from the mean number observed in the nontreated controls at necropsy, dividing the remainder by the latter mean number and multiplying by 100. The mean percentage clearances against the various helminths identified in the test sheep are calculated.

Ostertagia = test: as above; conditions: Oral, 100 mg/kg, groups of five
Procedure: as §1, §2, §3, §4, §5

Haemonchus = test: as above; conditions: Oral, 100 mg/kg, groups of five
Procedure: as §1, §2, §3, §4, §5

Nematodirus = test: as above; conditions: Oral, 100 mg/kg, groups of five
Procedure: as §1, §2, §3, §4, §5

[1] = test system: Trichostrongylus colubriformis; test: as above; conditions: Oral, 100 mg/kg, groups of five
Procedure: as §1, §2, §3, §4, §5

Trichostrongylus axei = test: as above; conditions: Oral, 100 mg/kg, groups of five
Procedure: as §1, §2, §3, §4, §5

Trichuris = test: as above; conditions: Oral, 100 mg/kg, groups of five
Procedure: as §1, §2, §3, §4, §5

[2] = ip, intraperitoneal administration, read-out: H. contortus %Clearance I.P.
[3] = oral administration, read-out: H. contortus %Clearance P.O.

Row | Compound | inhibition in vivo at 100 mg/kg (H. contortus; [2]) [%] | inhibition in vivo at 100 mg/kg (H. contortus; [3]) [%] | other results
1 | Cc1cccc(C(=O)NN=Cc2ccc3ccccc3n2)c1 [Compound 4, 3-methylbenzoic acid (2-quinolinylmethyl-ene)hydrazide] | 29.8 | 53.3 | 
2 | CCOC(=O)NN=Cc1ccnc2ccccc12 [Compound 6, ethyl (4-quinolinylmethylene)carbazate] | 61.2 | 82.9 | Percentage Clearance of Adult Worms Oes. (Oesophagostomum): 33.3%; Percentage Clearance of Adult Worms Ost. (Ostertagia): 79.4%; Percentage Clearance of Adult Worms H. (Haemonchus): 94.1%; Percentage Clearance of Adult Worms N. (Nematodirus): 45.2%; Percentage Clearance of Adult Worms T.c. [1]: 61.4%; Percentage Clearance of Adult Worms T.a. (Trichostrongylus axei): 0%; Percentage Clearance of Adult Worms Trich. (Trichuris): 11.1%
3 | O=C(NN=Cc1ccc2ccccc2n1)c1ccccc1 [Compound 8, benozic acid (2-quinolinylmethylene) hydrazide] |  | 33 | 
4 | O=C(NN=Cc1ccc2ccccc2n1)c1cccnc1 [Compound 9] |  | 76.8 | 
5 | O=C(NN=Cc1ccnc2ccccc12)c1ccccc1 [Compound 11] |  | 96.8 | 
6 | NC(=O)NCC(=O)NN=Cc1ccc2ccccc2n1 [Compound 12] |  | 32.9 | 
7 | CCOc1ccc(C(=O)NN=Cc2ccc3ccccc3n2)cc1 [Compound 14] | 0 | 36.8 | 
8 | Cc1ccccc1C(=O)NN=Cc1ccc2ccccc2n1 [Compound 15] | 0 | 32 | 
9 | O=C(NN=Cc1ccnc2ccccc12)c1cccs1 [Compound 16] | 80.1 | 25.2 | 
10 | O=C(NN=Cc1ccc2ccccc2n1)c1cccc(O)c1 [Compound 20] | 20.3 | 0 | 
11 | COc1ccc(C(=O)NN=Cc2ccc3ccccc3n2)cc1 [Compound 22, 4-methoxybenzoic acid (2-quinolinylmethylene)hydrazide] | 14.3 | 0 | 
12 | O=C(NN=Cc1ccc2ccccc2n1)c1cccc([N+](=O)[O-])c1 [Compound 23, 3-nitrobenzoic acid (2-quinolinylmethylene)hydrazide] | 0 | 39.5 | 
13 | COC(=O)NN=Cc1ccnc2ccccc12 [Compound 25, methyl (4-quinolinylmethylene)carbazate] |  | 3.4 | 
14 | O=C(NN=Cc1ccnc2ccccc12)c1ccc(C(F)(F)F)cc1 [Compound 26, 4-trifluoromethylbenzoic acid (4-quinolinylmethylene)hydrazide] | 29 | 40.2 | 
15 | O=C(NN=Cc1ccnc2ccccc12)C1CCC1 [Compound 29, cyclobutanecarboxylic acid (4-quinolinylmethylene)hydrazide] | 88.4 | 99.8 | 
16 | CCC(=O)NN=Cc1cnc2ccccc2c1 [Compound 39] |  | 96.4 | 
17 | O=C(NN=Cc1cnc2ccccc2c1)C1CCCCC1 [Compound 41] |  | 98.2 | 
18 | CC(=O)NN=Cc1cnc2ccccc2c1 [Compound 43] |  | 85.4 | 
